The experiment relates to CFUs. The experiment can be described thus: Reduction in CFUs with additive-containing supercritical carbon dioxide sterilant fluid. The class given is cell-based. Particulars: additive in supercritical carbon dioxide under sterilization temperature and pressure conditions. The source says:
It has been observed that 6-log reductions in CFUs may be achieved in accordance with the present invention by subjecting materials to be sterilized under sterilization temperature and pressure conditions using an additive-containing supercritical carbon dioxide as a sterilant fluid, wherein the additive is carbonic anhydrase. Further, this process is enhanced where the sterilant fluid is agitated during the sterilization process.

Here are results for 1 substance from patent US7771652B2, “Combined use of an alkaline earth metal compound and a sterilizing agent to maintain osteoinduction properties of a demineralized bone matrix” (Novasterilis, Inc., priority 2008, dated 2010).

For carbonic anhydrase, the “reductions in CFUs” value is 6 log.
